Experiments:
[1] = Dynamic vapor sorption (DVS) analysis; assay type: physicochemical; conditions: relative humidity increased from about 0% to about 90% RH
Procedure: In certain embodiments, Form A is characterized by dynamic vapor sorption analysis. […] In certain embodiments, Form A comprises less than 0.1% water as determined in a coulometric Karl Fischer (KF) titrator equipped with an oven sample processor set at 225° C.
In certain embodiments, Form B is characterized by dynamic vapor sorption analysis. […] In certain embodiments, Form B comprises less than 0.1% water as determined in a coulometric Karl Fischer (KF) titrator equipped with an oven sample processor set at 225° C.
In certain embodiments, Form C is characterized by dynamic vapor sorption analysis. […] In certain embodiments, Form C comprises less than 0.1% water as determined in a coulometric Karl Fischer (KF) titrator equipped with an oven sample processor set at 225° C.

[2] = assay type: physicochemical
Text: In certain embodiments, the compound for use in the methods is an anhydrous Form C of 2-(4-chlorophenyl)-N-((2-(2,6-dioxopiperidin-3-yl)-1-oxoisoindolin-5-yl)methyl)-2,2-difluoroacetamide.
In certain embodiments, Form C is obtained by slurrying 2-(4-chlorophenyl)-N-((2-(2,6-dioxopiperidin-3-yl)-1-oxoisoindolin-5-yl)methyl)-2,2-difluoroacetamide in certain solvent systems, for example, solvent systems comprising one or more of the following solvents: acetonitril/water, acetone, or ethanol/water for extended period of time.

HL-60 human AML cells = experiment: HL-60 IV AML xenograft model, survival study; assay type: in vivo, SCID mice; conditions: positive control; p<0.05 vs vehicle
Procedure: In this study, Compound 1 antitumor activity in the HL-60 IV AML xenograft model was studies. In this model, HL-60 human AML cells engraft in host BM and internal organs (eg, spleen, liver) and animals develop progressive peripheral leukocytosis. Female severe combined immunodeficiency (SCID) mice were inoculated with HL-60 cells by tail vein injection. To understand the effect of Compound 1 on the xenografted HL-60 cells, animals were dosed intraperitoneal (IP) with vehicle or Compound 1 (0.5, 1, 2.5, and 5 mg/kg) once daily (QD)×5 between Weeks 3 and 4 post-engraftment (AP6516, survival study) or animals were dosed IP twice daily (BID) with vehicle or Compound 1 for 5 or 10 consecutive days (5 mg/kg BID×5 or 2.5 mg/kg, BID×10) between Weeks 6 and 8 post-engraftment (Study AP6982, % human CD33+[hCD33+] cells in BM).
Tumor burden from the peripheral blood of HL-60-bearing animals was assessed by fluorescence-activated cell sorting (FACS) at Week 7 post-tumor cell inoculation. […] Mice from the vehicle control and Compound 1 treatment groups succumbed to disease burden starting on Day 54 for the vehicle control group and between Day 51 and Day 57 for the Compound 1 treatment groups. […] One mouse (1/8) from the 2.5 mg/kg Compound 1-treated group survived to study termination on Day 162.

SMILES | water uptake (DVS) [1] | thermodynamic stability among the crystal forms [2] | median survival (HL-60 human AML cells) [days]
O=C1CCC(N2Cc3cc(CNC(=O)C(F)(F)c4ccc(Cl)cc4)ccc3C2=O)C(=O)N1 (centres unmarked) [Form C, 2-(4-chlorophenyl)-N-((2-(2,6-dioxopiperidin-3-yl)-1-oxoisoindolin-5-yl)methyl)-2,2-difluoroacetamide] | about 0.6 % w/w | most thermodynamically stable anhydrate | –
O=C1CCC(N2Cc3cc(CNC(=O)C(F)(F)c4ccc(Cl)cc4)ccc3C2=O)C(=O)N1 (centres unmarked) [Form A, 2-(4-chlorophenyl)-N-((2-(2,6-dioxopiperidin-3-yl)-1-oxoisoindolin-5-yl)methyl)-2,2-difluoroacetamide] | about 1.2 % w/w | – | –
Nc1nc(F)nc2c1ncn2[C@@H]1O[C@H](CO)[C@@H](O)[C@@H]1O [fludarabine, reference compound] | – | – | 76
O=C1CCC(N2Cc3cc(CNC(=O)C(F)(F)c4ccc(Cl)cc4)ccc3C2=O)C(=O)N1 (centres unmarked) [Form B, 2-(4-chlorophenyl)-N-((2-(2,6-dioxopiperidin-3-yl)-1-oxoisoindolin-5-yl)methyl)-2,2-difluoroacetamide] | about 1.4 % w/w | – | –
